Experimental data: publication PMC4036672 (Analytical biochemistry, 2014)
Where a SMILES comes first, the peptide text is derived from it.

The molecules below were run against T1, Neuropilin-2 (Nrp2) (Homo sapiens, UniProt O60462) (assay: competition plate assay: AP-VEGF-C binding to immobilised purified Nrp2-b1b2).
T1 sequence (O60462 276-595): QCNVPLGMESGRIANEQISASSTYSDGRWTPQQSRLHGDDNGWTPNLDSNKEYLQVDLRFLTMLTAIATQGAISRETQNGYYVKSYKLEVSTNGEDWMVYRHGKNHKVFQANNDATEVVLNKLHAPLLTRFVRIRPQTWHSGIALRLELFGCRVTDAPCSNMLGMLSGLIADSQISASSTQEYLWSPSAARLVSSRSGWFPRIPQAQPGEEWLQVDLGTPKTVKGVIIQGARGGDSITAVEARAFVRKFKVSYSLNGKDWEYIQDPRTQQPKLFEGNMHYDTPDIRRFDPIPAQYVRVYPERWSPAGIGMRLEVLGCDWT

Compared with `Oc1cc2c(cc1O)[C@H]1c3ccccc3CN[C@@H]1CC2` (racemic) [Dihydrexidine], `COc1cc(C(=O)NS(=O)(=O)c2ccccc2C)ccc1Cc1cn(C)c2ccc(NC(=O)OC3CCCC3)cc12` [Zafirlukast] is 1.7-fold lower in IC50: 113 µM for the first, 66 µM for the second. The second is the more potent here.

`CC(C)C[C@H](NC(=O)[C@H](Cc1c[nH]c2ccccc12)NC(=O)[C@@H](NC(=O)[C@H](C)N)[C@@H](C)O)C(=O)N1CCC[C@H]1C(=O)N1CCC[C@H]1C(=O)N[C@@H](CCCNC(=N)N)C(=O)O` [ATWLPPR] (H-ATWLPPR-OH) showed an IC50 of 43 µM.
